# In US11725011B2, “Bicyclic urea kinase inhibitors and uses thereof” (The Broad Institute, Inc., priority 2016, dated 2023):
# Tests used:
# Experiment in all cases: KINOMEscan
# Format in all cases: binding
# Conditions in all cases: 1 uM
# [1] = biological target: NLK (Homo sapiens (Human), UniProt Q9UBE8)
# [2] = biological target: ZAK (Homo sapiens (Human), UniProt Q9NYL2)
# [3] = biological target: TBK1 (Homo sapiens (Human), UniProt Q9UHD2)
# [4] = biological target: NEK6 (Homo sapiens (Human), UniProt Q9HC98)
# [5] = biological target: CAMK2A (Homo sapiens (Human), UniProt Q9UQM7)
# CAMK2A, sequence (Q9UQM7 whole entry): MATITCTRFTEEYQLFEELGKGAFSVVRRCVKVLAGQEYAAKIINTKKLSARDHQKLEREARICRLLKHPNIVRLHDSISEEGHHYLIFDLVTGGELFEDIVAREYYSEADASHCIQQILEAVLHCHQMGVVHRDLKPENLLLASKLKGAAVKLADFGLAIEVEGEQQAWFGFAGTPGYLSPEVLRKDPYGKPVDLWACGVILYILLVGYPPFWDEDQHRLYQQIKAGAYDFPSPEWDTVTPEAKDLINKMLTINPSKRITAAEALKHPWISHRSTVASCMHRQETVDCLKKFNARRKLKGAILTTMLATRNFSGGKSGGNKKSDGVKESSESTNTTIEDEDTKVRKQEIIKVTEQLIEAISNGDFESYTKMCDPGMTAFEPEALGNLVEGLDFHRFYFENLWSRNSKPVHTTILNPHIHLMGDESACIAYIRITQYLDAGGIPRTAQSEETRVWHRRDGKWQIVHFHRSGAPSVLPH
# [6] = biological target: EGFR (G719C) (Homo sapiens (Human), UniProt P00533, G719C)
# [7] = biological target: EPHA4 (Homo sapiens (Human), UniProt P54764)
# [8] = biological target: TTK (Homo sapiens (Human), UniProt P33981)
# [9] = biological target: CAMKK1 (Homo sapiens (Human), UniProt Q8N5S9)
# [10] = biological target: PDPK1 (Homo sapiens (Human), UniProt O15530)
# [11] = biological target: LATS2 (Homo sapiens (Human), UniProt Q9NRM7)
# [12] = biological target: SBK1 (Homo sapiens (Human), UniProt Q52WX2)
# [13] = biological target: MAP3K2 (Homo sapiens (Human), UniProt Q9Y2U5)
# [14] = biological target: MLCK (Homo sapiens (Human), UniProt Q32MK0)
# [15] = biological target: MERTK (Homo sapiens (Human), UniProt Q12866)
# [16] = biological target: PIK3CA (E542K) (Homo sapiens (Human), UniProt P42336, E542K)
# [17] = biological target: RPS6KA5 (Kin.Dom.1-N-terminal) (Homo sapiens (Human), UniProt O75582)
# [18] = biological target: ABL1 (T315I)-nonphosphorylated (Homo sapiens (Human), UniProt P00519, T315I)
# [19] = biological target: MARK3 (Homo sapiens (Human), UniProt P27448)
# [20] = biological target: RPS6KA4 (Kin.Dom.1-N-terminal) (Homo sapiens (Human), UniProt O75676)
# [21] = biological target: p38-beta (Homo sapiens (Human), UniProt Q15759)
# [22] = biological target: MEK4 (Homo sapiens (Human), UniProt P45985)
# [23] = biological target: ULK1 (Homo sapiens (Human), UniProt O75385)
# [24] = biological target: CSNK2A2 (Homo sapiens (Human), UniProt P19784)
# CSNK2A2, sequence (P19784 whole entry): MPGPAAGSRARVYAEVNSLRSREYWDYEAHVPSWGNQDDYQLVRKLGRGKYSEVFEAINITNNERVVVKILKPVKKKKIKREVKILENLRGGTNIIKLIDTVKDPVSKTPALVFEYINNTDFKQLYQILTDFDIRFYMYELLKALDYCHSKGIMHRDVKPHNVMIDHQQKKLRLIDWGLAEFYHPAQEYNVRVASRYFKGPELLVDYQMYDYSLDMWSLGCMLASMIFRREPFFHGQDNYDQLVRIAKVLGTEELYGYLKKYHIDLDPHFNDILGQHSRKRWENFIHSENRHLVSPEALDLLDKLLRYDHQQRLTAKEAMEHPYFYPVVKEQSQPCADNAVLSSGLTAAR
# [25] = biological target: LZK (Homo sapiens (Human), UniProt O43283)
# LZK, sequence (O43283 whole entry): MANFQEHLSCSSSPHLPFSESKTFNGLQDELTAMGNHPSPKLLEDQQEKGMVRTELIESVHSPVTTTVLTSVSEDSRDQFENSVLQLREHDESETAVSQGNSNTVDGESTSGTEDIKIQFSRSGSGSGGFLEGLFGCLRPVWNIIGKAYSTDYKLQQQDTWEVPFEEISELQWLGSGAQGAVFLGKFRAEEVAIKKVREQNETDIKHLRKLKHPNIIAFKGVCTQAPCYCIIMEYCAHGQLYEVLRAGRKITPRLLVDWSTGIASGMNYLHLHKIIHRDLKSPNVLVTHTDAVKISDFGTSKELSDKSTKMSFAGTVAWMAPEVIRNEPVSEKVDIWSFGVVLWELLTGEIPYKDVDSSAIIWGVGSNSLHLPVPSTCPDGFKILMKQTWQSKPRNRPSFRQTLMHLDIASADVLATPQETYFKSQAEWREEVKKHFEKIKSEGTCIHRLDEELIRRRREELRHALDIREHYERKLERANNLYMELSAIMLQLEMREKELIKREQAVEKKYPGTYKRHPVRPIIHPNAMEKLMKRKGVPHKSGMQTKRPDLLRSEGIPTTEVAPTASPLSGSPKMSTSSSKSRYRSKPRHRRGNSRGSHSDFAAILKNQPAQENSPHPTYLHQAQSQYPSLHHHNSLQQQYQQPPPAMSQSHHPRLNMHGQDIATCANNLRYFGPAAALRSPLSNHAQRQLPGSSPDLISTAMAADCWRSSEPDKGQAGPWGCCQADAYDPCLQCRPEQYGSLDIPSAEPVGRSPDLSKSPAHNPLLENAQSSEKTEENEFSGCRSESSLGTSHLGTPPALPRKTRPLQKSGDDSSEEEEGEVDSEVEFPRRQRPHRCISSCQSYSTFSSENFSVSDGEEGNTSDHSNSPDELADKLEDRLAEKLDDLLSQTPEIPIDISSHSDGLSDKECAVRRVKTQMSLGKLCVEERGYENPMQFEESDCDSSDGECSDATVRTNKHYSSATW
# [26] = biological target: JAK3 (JH1domain-catalytic) (Homo sapiens (Human), UniProt P52333)
# JAK3 (JH1domain-catalytic), sequence (P52333 822-1111): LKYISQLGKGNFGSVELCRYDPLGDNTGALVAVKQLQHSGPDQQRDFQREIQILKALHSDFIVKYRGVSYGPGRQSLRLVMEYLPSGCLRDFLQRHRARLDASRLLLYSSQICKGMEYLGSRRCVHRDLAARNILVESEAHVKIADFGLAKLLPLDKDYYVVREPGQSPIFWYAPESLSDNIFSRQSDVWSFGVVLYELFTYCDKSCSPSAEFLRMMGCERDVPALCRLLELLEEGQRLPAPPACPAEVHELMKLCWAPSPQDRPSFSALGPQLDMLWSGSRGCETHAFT
# [27] = biological target: ASK2 (Homo sapiens (Human), UniProt O95382)
# [28] = biological target: BRK (Homo sapiens (Human), UniProt Q13882)
# BRK, sequence (Q13882 whole entry): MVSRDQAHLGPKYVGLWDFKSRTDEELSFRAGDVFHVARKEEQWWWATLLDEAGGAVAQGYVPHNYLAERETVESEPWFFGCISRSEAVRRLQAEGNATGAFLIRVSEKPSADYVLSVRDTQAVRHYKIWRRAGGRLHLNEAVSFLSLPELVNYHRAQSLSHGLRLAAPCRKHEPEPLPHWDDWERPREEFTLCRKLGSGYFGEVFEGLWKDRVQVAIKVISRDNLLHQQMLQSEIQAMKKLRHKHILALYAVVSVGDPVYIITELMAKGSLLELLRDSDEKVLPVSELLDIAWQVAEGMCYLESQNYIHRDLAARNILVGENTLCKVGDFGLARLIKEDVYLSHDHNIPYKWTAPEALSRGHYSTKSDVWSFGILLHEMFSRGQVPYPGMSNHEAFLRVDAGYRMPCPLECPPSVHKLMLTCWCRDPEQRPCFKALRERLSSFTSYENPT
# [29] = biological target: MYLK4 (Homo sapiens (Human), UniProt Q86YV6)
# [30] = biological target: JAK1 (JH2 domain-pseudokinase) (Homo sapiens (Human), UniProt P23458)
# [31] = biological target: FLT3 (D835H) (Homo sapiens (Human), UniProt P36888, D835H)
# [32] = biological target: VEGFR2 (Homo sapiens (Human), UniProt P35968)
# VEGFR2, sequence (P35968 20-1356): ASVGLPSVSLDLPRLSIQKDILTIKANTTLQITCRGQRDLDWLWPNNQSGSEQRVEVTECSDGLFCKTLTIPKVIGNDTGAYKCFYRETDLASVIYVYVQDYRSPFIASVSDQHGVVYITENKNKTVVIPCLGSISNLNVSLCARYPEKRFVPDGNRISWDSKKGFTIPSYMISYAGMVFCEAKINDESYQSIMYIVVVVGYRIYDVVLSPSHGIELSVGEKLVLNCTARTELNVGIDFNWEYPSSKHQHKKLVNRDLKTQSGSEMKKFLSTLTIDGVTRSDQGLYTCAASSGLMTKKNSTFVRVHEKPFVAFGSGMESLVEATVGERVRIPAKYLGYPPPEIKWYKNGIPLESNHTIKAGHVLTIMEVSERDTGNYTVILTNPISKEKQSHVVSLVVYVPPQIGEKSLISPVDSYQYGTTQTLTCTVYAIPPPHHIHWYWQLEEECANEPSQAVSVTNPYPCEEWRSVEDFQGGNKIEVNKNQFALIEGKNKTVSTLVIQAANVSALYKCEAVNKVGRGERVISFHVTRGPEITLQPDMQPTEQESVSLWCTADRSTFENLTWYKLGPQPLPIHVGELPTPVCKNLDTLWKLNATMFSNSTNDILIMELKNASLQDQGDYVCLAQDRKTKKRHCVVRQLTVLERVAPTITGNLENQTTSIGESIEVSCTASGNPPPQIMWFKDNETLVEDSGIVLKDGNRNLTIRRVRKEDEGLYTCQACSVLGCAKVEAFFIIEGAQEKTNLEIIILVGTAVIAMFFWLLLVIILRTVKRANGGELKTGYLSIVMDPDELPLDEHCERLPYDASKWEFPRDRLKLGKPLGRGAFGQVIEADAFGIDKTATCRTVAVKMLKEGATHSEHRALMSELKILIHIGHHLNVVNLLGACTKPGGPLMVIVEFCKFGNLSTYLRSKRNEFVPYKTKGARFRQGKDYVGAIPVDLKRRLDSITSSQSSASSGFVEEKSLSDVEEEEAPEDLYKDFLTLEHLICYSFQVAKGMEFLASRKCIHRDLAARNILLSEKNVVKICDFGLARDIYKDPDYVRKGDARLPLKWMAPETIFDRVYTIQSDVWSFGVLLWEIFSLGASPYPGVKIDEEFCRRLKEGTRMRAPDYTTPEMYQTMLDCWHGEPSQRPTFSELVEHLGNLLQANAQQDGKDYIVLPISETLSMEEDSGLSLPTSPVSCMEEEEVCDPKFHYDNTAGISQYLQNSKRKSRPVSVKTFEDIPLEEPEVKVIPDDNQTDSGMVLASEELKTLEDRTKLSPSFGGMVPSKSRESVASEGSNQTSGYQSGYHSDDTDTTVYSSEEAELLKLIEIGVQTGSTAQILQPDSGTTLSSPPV
# [33] = biological target: DRAK1 (Homo sapiens (Human), UniProt Q9UEE5)
# [34] = biological target: CDKL1 (Homo sapiens (Human), UniProt Q00532)
# [35] = biological target: EGFR (L861Q) (Homo sapiens (Human), UniProt P00533, L861Q)
# [36] = biological target: RET (M918T) (Homo sapiens (Human), UniProt P07949, M918T)
# [37] = biological target: PFCDPK1 (P. falciparum) (Plasmodium falciparum (isolate 3D7), UniProt P62344)
# [38] = biological target: RSK1 (Kin.Dom.2-C-terminal) (Homo sapiens (Human), UniProt Q15418)
# RSK1 (Kin.Dom.2-C-terminal), sequence (Q15418 418-675): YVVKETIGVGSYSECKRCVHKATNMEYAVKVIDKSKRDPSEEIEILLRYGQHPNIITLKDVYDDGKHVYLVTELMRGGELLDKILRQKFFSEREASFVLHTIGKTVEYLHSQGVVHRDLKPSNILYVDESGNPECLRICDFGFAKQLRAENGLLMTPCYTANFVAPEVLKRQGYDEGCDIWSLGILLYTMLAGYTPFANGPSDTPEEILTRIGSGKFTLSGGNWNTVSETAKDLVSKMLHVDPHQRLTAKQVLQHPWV
# [39] = biological target: KIT (D816V) (Homo sapiens (Human), UniProt P10721, D816V)
# TBK1, sequence (Q9UHD2 whole entry): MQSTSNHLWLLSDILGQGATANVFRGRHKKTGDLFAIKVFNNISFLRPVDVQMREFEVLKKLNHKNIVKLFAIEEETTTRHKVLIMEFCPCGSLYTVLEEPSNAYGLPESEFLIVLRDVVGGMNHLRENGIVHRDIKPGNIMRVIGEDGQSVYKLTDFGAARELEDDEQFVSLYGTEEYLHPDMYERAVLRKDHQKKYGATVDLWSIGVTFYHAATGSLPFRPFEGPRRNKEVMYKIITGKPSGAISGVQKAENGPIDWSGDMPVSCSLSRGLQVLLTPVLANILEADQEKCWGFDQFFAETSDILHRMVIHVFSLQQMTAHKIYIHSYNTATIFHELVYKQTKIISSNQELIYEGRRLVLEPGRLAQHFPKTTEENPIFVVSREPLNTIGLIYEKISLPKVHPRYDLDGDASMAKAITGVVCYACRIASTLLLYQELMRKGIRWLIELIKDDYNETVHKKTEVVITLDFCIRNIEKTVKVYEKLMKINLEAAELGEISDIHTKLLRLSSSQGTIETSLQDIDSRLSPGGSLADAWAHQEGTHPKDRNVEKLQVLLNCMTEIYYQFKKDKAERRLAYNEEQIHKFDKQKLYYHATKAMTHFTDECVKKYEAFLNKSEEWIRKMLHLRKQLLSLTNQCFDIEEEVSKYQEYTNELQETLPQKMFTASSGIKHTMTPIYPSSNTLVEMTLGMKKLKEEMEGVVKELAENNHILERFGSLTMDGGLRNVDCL
smiles,measurement,setting,value
COc1ccc(N2C(=O)N(c3c(C)cccc3C)Cc3cnc(Nc4ccc(N5CCN(C)CC5)cc4)nc32)c(OC)c1 [HG-11-136-01],KINOMEscan NLK,[1],7.6
same,KINOMEscan ZAK,[2],1.2
same,KINOMEscan TBK1,[3],37
same,KINOMEscan NEK6,[4],100
same,KINOMEscan CAMK2A,[5],93
same,KINOMEscan EGFR (G719C),[6],0.1
same,KINOMEscan EPHA4,[7],0
same,KINOMEscan TTK,[8],47
same,KINOMEscan CAMKK1,[9],94
same,KINOMEscan PDPK1,[10],100
same,KINOMEscan LATS2,[11],60
same,KINOMEscan SBK1,[12],6.6
same,KINOMEscan MAP3K2,[13],0.05
same,KINOMEscan MLCK,[14],100
same,KINOMEscan MERTK,[15],5.6
same,KINOMEscan PIK3CA (E542K),[16],88
same,KINOMEscan RPS6KA5 (Kin.Dom.1-N-terminal),[17],100
same,KINOMEscan ABL1 (T315I)-nonphosphorylated,[18],0
same,KINOMEscan MARK3,[19],1.6
same,KINOMEscan RPS6KA4 (Kin.Dom.1-N-terminal),[20],79
same,KINOMEscan p38-beta,[21],3.1
same,KINOMEscan MEK4,[22],48
same,KINOMEscan ULK1,[23],3.2
same,KINOMEscan CSNK2A2,[24],0.05
same,KINOMEscan LZK,[25],4
same,KINOMEscan JAK3 (JH1domain-catalytic),[26],0
same,KINOMEscan ASK2,[27],46
same,KINOMEscan BRK,[28],0.45
same,KINOMEscan MYLK4,[29],60
same,KINOMEscan JAK1 (JH2 domain-pseudokinase),[30],8.1
same,KINOMEscan FLT3 (D835H),[31],16
same,KINOMEscan VEGFR2,[32],1.8
same,KINOMEscan DRAK1,[33],96
same,KINOMEscan CDKL1,[34],84
same,KINOMEscan EGFR (L861Q),[35],0
same,KINOMEscan RET (M918T),[36],0.05
same,KINOMEscan PFCDPK1 (P. falciparum),[37],0.1
same,KINOMEscan RSK1 (Kin.Dom.2-C-terminal),[38],9.7
same,KINOMEscan KIT (D816V),[39],0.2
